The record followed here is patent US20030236291A1, “Use of citreamicins” (priority 2000, published 2003).

Format in all cases: cell-based
In experiment [1] the test system is HT-29 (ATCC HTB-38, monolayer culture of a human colon carcinoma). In words: In vitro antitumor screening, growth inhibition of HT-29 cells (Crystal Violet). Conditions: approximate IC50; three days of incubation at 37° C.; Crystal Violet staining; duplicate. The text has this:
(§1) Its antitumor activity has been detected in vitro by culturing the tumor cells following the methodology described by
(§2) (1): Raymond I. Bergeron, Paul F. Cavanaugh, Jr., Steven J. Mine, Robert G. Hughes, Jr., Gary T. Elliot and Carl W. Porter. Antineoplastic and antiherpetic activity of spermidine catecholamide iron chelators. Biochem. Bioph. Res. Comm. 1984, 121(3): 848-854; and
(§3) (2). Alan C. Schroeder, Robert G. Hughes, Jr. and Alexander Bloch. Effects of Acycic Pyrimidine Nucleoside Analoges. J. Med. Chem. 1981, 24:1078-1083.
(§4) Cells were maintained in logarithmic phase of growth in Eagle's Minimum Essential Medium, with Earle's Balanced Salts, with 2.0 mM L-glutamine, with non-essential amino acids, without sodium bicarbonate (EMEM/neaa); supplemented with 10% Fetal Calf Serum (FCS), 10^−2 M sodium bicarbonate and 0.1 g/l penicillin-G +streptomycin sulfate. […]
(§5) A549 and HT-29 cells were seeded into 16 mm wells at 2×10^4 cells per well in 1 ml aliquots of MEM 1OFCS containing the indicated concentration of drug. […] An approximate IC50 was determined by comparing the growth in wells with drug to the growth in wells control.

In experiment [2] the test system is P388 (ATCC CCL-46, suspension culture of a lymphoid neoplasm from DBA/2 mouse). In words: In vitro antitumor screening, growth inhibition of P388 cells.
Text: as §1, §2, §3
Cells were maintained in logarithmic phase of growth in Eagle's Minimum Essential Medium, with Earle's Balanced Salts, with 2.0 mM L-glutamine, with non-essential amino acids, without sodium bicarbonate (EMEM/neaa); supplemented with 10% Fetal Calf Serum (FCS), 10^−2 M sodium bicarbonate and 0.1 g/l penicillin-G +streptomycin sulfate.
A screening procedure has been carried out to determine and compare the antitumor activity of citreamicin CL, using an adapted form of the method described by Bergeron et al. The antitumor cells employed were P388 (ATCC CCL-46, suspension culture of a lymphoid neoplasm from DBA/2 mouse), A549 (ATCC CCL-185, monolayer culture of a human lung carcinoma) and HT-29 (ATCC HTB-38, monolayer culture of a human colon carcinoma). […]

Experiment [3] concerns A549 (ATCC CCL-185, monolayer culture of a human lung carcinoma). In words: In vitro antitumor screening, growth inhibition of A549 cells (Crystal Violet). As to conditions: approximate IC50; three days of incubation at 37° C.; Crystal Violet staining; duplicate.
Text: as §1, §2, §3, §4, §5

Structures are written as SMILES. pIC50: −log10 of the molar value.

The pIC50 is −log10 of the IC50, conventionally taken in molar units. Take `COc1cc2oc3c(c(=O)c2cc1OC)C(=O)c1c(ccc2cc4c(c(O)c12)C(=O)N1C(C)(C4)OC(=O)C1(C)COC(=O)CC(C)C)C3=O` (stereo not drawn) [Citreamicin α, citreamicin α]: the pIC50 in experiment [1] is 8.40; in experiment [2] (approximate IC50, three days of incubation at 37° C., growth in wells with drug vs control wells, duplicate), 8.52; in experiment [3], 8.40. The “in vitro antitumor activity” value in experiment [2] (cell line derived from mouse lymphoma) is on record as “exhibits in vitro antitumor activity”.
